The assay relates to HCT116 colorectal cancer cells. The experiment in a line: Cisplatin sensitization assay (96 h MTS cell viability).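 Further: compound concentration needed to lower the IC50 of Cisplatin alone by a set fold.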 In kind it is cell-based. The settings on record: Cisplatin sensitization value. The procedure, abridged:
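The MTS viability read, after 1 h with reagent, followed 96 h of co-treatment at 37° C. in 5% CO2. Both compound and cisplatin were titrated 2-fold from a 10 μM top final concentration in a complete concentration matrix on HCT116 cells. Scores +++/++/+ reflect cisplatin sensitization value ranges.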

Regarding `Nc1nn2cc(F)cnc2c1C(=O)Nc1cnccc1C1CC1` [I-C-42, 2-amino-N-(4-cyclopropylpyridin-3-yl)-6-fluoropyrazolo[1,5-a]pyrimidine-3-carboxamide], the “Cisplatin Sensitization Assay” value is given as “++ (Compounds with a Cisplatin sensitization value >0.02 μM but <0.2 μM are marked with “++.”)”. As for `CC(C)(C)N1CCN(c2ccncc2NC(=O)c2c(N)nn3cc(Cl)cnc23)CC1` [I-N-34, 2-amino-N-(4-(4-(tert-butyl)piperazin-1-yl)pyridin-3-yl)-6-chloropyrazolo[1,5-a]pyrimidine-3-carboxamide], the entry is “++ (Compounds with a Cisplatin sensitization value >0.02 μM but <0.2 μM are marked with “++.”)”; as for `N#CCc1cnc2c(C(=O)Nc3cnccc3OC3CNC3)c(N)nn2c1` [I-O-82, 2-amino-N-(4-(azetidin-3-yloxy)pyridin-3-yl)-6-(cyanomethyl)pyrazolo[1,5-a]pyrimidine-3-carboxamide], “++ (Compounds with a Cisplatin sensitization value >0.02 μM but <0.2 μM are marked with “++.”)”. For the compound `Nc1nn2cc(F)cnc2c1C(=O)Nc1cnccc1N1CCN(S(=O)(=O)C2COC2)CC1` [I-N-195, 2-amino-6-fluoro-N-(4-(4-(oxetan-3-ylsulfonyl)piperazin-1-yl)pyridin-3-yl)pyrazolo[1,5-a]pyrimidine-3-carboxamide], the “Cisplatin Sensitization Assay” value was “+++ (Compounds with a Cisplatin sensitization value of <0.02 μM are marked with “+++.”)”. Regarding `Cc1ccn(-c2ccncc2NC(=O)c2c(N)nn3cc(F)cnc23)n1` [I-N-225, 2-amino-6-fluoro-N-(4-(3-methyl-1H-pyrazol-1-yl)pyridin-3-yl)pyrazolo[1,5-a]pyrimidine-3-carboxamide], the “Cisplatin Sensitization Assay” value is “++ (Compounds with a Cisplatin sensitization value >0.02 μM but <0.2 μM are marked with “++.”)”. Consider `COCCOc1ccncc1NC(=O)c1c(N)nn2cc(CC#N)cnc12` [I-O-29, 2-amino-6-(cyanomethyl)-N-(4-(2-methoxyethoxy)pyridin-3-yl)pyrazolo[1,5-a]pyrimidine-3-carboxamide], for which the “Cisplatin Sensitization Assay” value is reported as “+++ (Compounds with a Cisplatin sensitization value of <0.02 μM are marked with “+++.”)”.

With `CN(C)Cc1ccc(Oc2ccncc2NC(=O)c2c(N)nn3cc(F)cnc23)cn1` [I-O-3, 2-amino-N-(4-((6-((dimethylamino)methyl)pyridin-3-yl)oxy)pyridin-3-yl)-6-fluoropyrazolo[1,5-a]pyrimidine-3-carboxamide], the “Cisplatin Sensitization Assay” value is on record as “++ (Compounds with a Cisplatin sensitization value >0.02 μM but <0.2 μM are marked with “++.”)”. As for `Cc1nnc(N2CCN(c3ccncc3NC(=O)c3c(N)nn4cc(F)cnc34)CC2)o1` [I-N-256, 2-amino-6-fluoro-N-(4-(4-(5-methyl-1,3,4-oxadiazol-2-yl)piperazin-1-yl)pyridin-3-yl)pyrazolo[1,5-a]pyrimidine-3-carboxamide], the entry is “++ (Compounds with a Cisplatin sensitization value >0.02 μM but <0.2 μM are marked with “++.”)”; as for `CC(=O)N1CC2(CCN(c3ccncc3NC(=O)c3c(N)nn4cc(F)cnc34)CC2)C1` [I-N-251, N-(4-(2-acetyl-2,7-diazaspiro[3.5]nonan-7-yl)pyridin-3-yl)-2-amino-6-fluoropyrazolo[1,5-a]pyrimidine-3-carboxamide], “+++ (Compounds with a Cisplatin sensitization value of <0.02 μM are marked with “+++.”)”.

Regarding `COCCN(C)C(=O)C1CCN(c2c(F)cncc2NC(=O)c2c(N)nn3cc(F)cnc23)CC1` [I-G-40, 2-amino-6-fluoro-N-(5-fluoro-4-(4-((2-methoxyethyl)(methyl)carbamoyl)piperidin-1-yl)pyridin-3-yl)pyrazolo[1,5-a]pyrimidine-3-carboxamide], the “Cisplatin Sensitization Assay” value is “+++ (Compounds with a Cisplatin sensitization value of <0.02 μM are marked with “+++.”)”. In the case of `Cc1cncc(NC(=O)c2c(N)nn3cc(F)cnc23)c1N1CCC(C(=O)N2CCN(C)CC2)CC1` [I-G-55, 2-amino-6-fluoro-N-(5-methyl-4-(4-(4-methylpiperazine-1-carbonyl)piperidin-1-yl)pyridin-3-yl)pyrazolo[1,5-a]pyrimidine-3-carboxamide], the “Cisplatin Sensitization Assay” value is “+++ (Compounds with a Cisplatin sensitization value of <0.02 μM are marked with “+++.”)”. As for `CN(C)CCN1CCN(c2ccncc2NC(=O)c2c(N)nn3cc(Cl)cnc23)CC1` [I-N-49, 2-amino-6-chloro-N-(4-(4-(2-(dimethylamino)ethyl)piperazin-1-yl)pyridin-3-yl)pyrazolo[1,5-a]pyrimidine-3-carboxamide], the entry is “+++ (Compounds with a Cisplatin sensitization value of <0.02 μM are marked with “+++.”)”; as for `Nc1nn2cc(F)cnc2c1C(=O)Nc1cnccc1OC1CN2CCC1CC2` (racemic) [I-O-6, (R,S)-2-amino-6-fluoro-N-(4-(quinuclidin-3-yloxy)pyridin-3-yl)pyrazolo[1,5-a]pyrimidine-3-carboxamide], “+++ (Compounds with a Cisplatin sensitization value of <0.02 μM are marked with “+++.”)”. `Cc1nccn1-c1ccncc1NC(=O)c1c(N)nn2cc(F)cnc12` [I-N-28, 2-amino-6-fluoro-N-(4-(2-methyl-1H-imidazol-1-yl)pyridin-3-yl)pyrazolo[1,5-a]pyrimidine-3-carboxamide]: the “Cisplatin Sensitization Assay” value was “+++ (Compounds with a Cisplatin sensitization value of <0.02 μM are marked with “+++.”)”. Consider `N#CCc1cnc2c(C(=O)Nc3cnccc3OCCCO)c(N)nn2c1` [I-O-40, 2-amino-6-(cyanomethyl)-N-(4-(3-hydroxypropoxy)pyridin-3-yl)pyrazolo[1,5-a]pyrimidine-3-carboxamide], for which the “Cisplatin Sensitization Assay” value is “++ (Compounds with a Cisplatin sensitization value >0.02 μM but <0.2 μM are marked with “++.”)”. With `Nc1nn2cc(F)cnc2c1C(=O)Nc1cncc(F)c1N1CCN(C2COC2)CC1` [I-N-13, 2-amino-6-fluoro-N-(5-fluoro-4-(4-(oxetan-3-yl)piperazin-1-yl)pyridin-3-yl)pyrazolo[1,5-a]pyrimidine-3-carboxamide] the entry was “+++ (Compounds with a Cisplatin sensitization value of <0.02 μM are marked with “+++.”)”; with `CO[C@@H]1CCN(C(=O)C2CCN(c3ccncc3NC(=O)c3c(N)nn4cc(F)cnc34)CC2)C1` [I-G-93, (R)-2-amino-6-fluoro-N-(4-(4-(3-methoxypyrrolidine-1-carbonyl)piperidin-1-yl)pyridin-3-yl)pyrazolo[1,5-a]pyrimidine-3-carboxamide], “+++ (Compounds with a Cisplatin sensitization value of <0.02 μM are marked with “+++.”)”; with `COC1CCN(C2CCN(c3ccncc3NC(=O)c3c(N)nn4cc(Cl)cnc34)CC2)C1` (centres unmarked) [I-N-95, 2-amino-6-chloro-N-(4-(4-(3-methoxypyrrolidin-1-yl)piperidin-1-yl)pyridin-3-yl)pyrazolo[1,5-a]pyrimidine-3-carboxamide], “++ (Compounds with a Cisplatin sensitization value >0.02 μM but <0.2 μM are marked with “++.”)”. As for `CN1CCC(NC(=O)C2CCN(c3c(F)cncc3NC(=O)c3c(N)nn4cc(F)cnc34)CC2)C1` (centres unmarked) [I-G-24, 2-amino-6-fluoro-N-(5-fluoro-4-(4-((1-methylpyrrolidin-3-yl)carbamoyl)piperidin-1-yl)pyridin-3-yl)pyrazolo[1,5-a]pyrimidine-3-carboxamide], the entry is “+++ (Compounds with a Cisplatin sensitization value of <0.02 μM are marked with “+++.”)”; as for `CN(C)CCOc1cc(C(F)(F)F)ncc1NC(=O)c1c(N)nn2cc(Cl)cnc12` [I-O-71, 2-amino-6-chloro-N-(4-(2-(dimethylamino)ethoxy)-6-(trifluoromethyl)pyridin-3-yl)pyrazolo[1,5-a]pyrimidine-3-carboxamide], “+ (Compounds with a Cisplatin sensitization value >0.2 μM but <5 μM are marked with “+.”)”; as for `Nc1nn2cc(F)cnc2c1C(=O)Nc1cncc(F)c1N1CCC(C(=O)N2CC3CCC(C2)N3)CC1` [I-G-44, N-(4-(4-(3,8-diazabicyclo[3.2.1]octane-3-carbonyl)piperidin-1-yl)-5-fluoropyridin-3-yl)-2-amino-6-fluoropyrazolo[1,5-a]pyrimidine-3-carboxamide], “+++ (Compounds with a Cisplatin sensitization value of <0.02 μM are marked with “+++.”)”. As for `Nc1nn2cc(Cl)cnc2c1C(=O)Nc1cnccc1N1CCN2CCC1CC2` [I-N-56, N-(4-(1,4-diazabicyclo[3.2.2]nonan-4-yl)pyridin-3-yl)-2-amino-6-chloropyrazolo[1,5-a]pyrimidine-3-carboxamide], the entry is “++ (Compounds with a Cisplatin sensitization value >0.02 μM but <0.2 μM are marked with “++.”)”.

As for `CN1CCCN(C(=O)C2CCN(c3c(F)cncc3NC(=O)c3c(N)nn4cc(F)cnc34)CC2)CC1` [I-G-6, 2-amino-6-fluoro-N-(5-fluoro-4-(4-(4-methyl-1,4-diazepane-1-carbonyl)piperidin-1-yl)pyridin-3-yl)pyrazolo[1,5-a]pyrimidine-3-carboxamide], the “Cisplatin Sensitization Assay” value is “+++ (Compounds with a Cisplatin sensitization value of <0.02 μM are marked with “+++.”)”. As for `Cc1nc(F)ccc1-c1ccncc1NC(=O)c1c(N)nn2cc(F)cnc12` [I-C-34, 2-amino-6-fluoro-N-(6-fluoro-2-methyl-[3,4′-bipyridin]-3′-yl)pyrazolo[1,5-a]pyrimidine-3-carboxamide], the entry is “+++ (Compounds with a Cisplatin sensitization value of <0.02 μM are marked with “+++.”)”; as for `N#CCc1cnc2c(C(=O)Nc3cnccc3O[C@@H]3CCNC3)c(N)nn2c1` [I-O-87, (R)-2-amino-6-(cyanomethyl)-N-(4-(pyrrolidin-3-yloxy)pyridin-3-yl)pyrazolo[1,5-a]pyrimidine-3-carboxamide], “++ (Compounds with a Cisplatin sensitization value >0.02 μM but <0.2 μM are marked with “++.”)”. On to `CN1CCN(c2c(Cl)cncc2NC(=O)c2c(N)nn3cc(Cl)cnc23)CC1` [I-N-41, 2-amino-6-chloro-N-(5-chloro-4-(4-methylpiperazin-1-yl)pyridin-3-yl)pyrazolo[1,5-a]pyrimidine-3-carboxamide], for which the “Cisplatin Sensitization Assay” value is on record as “+++ (Compounds with a Cisplatin sensitization value of <0.02 μM are marked with “+++.”)”.

Values taken from patent US11117900B2 (Vertex Pharmaceuticals Incorporated, priority 2012, dated 2021).
